Data: patent publication US12186332B2, “Methods for overcoming WNT/beta-catenin anti-cancer resistance in leukemia stem cells” (STOWERS INSTITUTE FOR MEDICAL RESEARCH, priority 2019, dated 2025)

Key:
[1] = tested on: Akt-enhanced β-catenin activity (TOP-Luc); assay: HTS TOPFlash/FOPFlash luciferase reporter dose-response; type: cell-based; details: DNR dose-response (FIG. 13A)
[2] = tested on: blast cells, LSCs and HSPCs of leukemic Pten:β-cat^Act mice; type: in vivo; details: low-dose DNR with chemotherapy
Experimental: Leukemic mice were treated with vehicle, chemotherapy, [Low]DXR (5×0.5 mg/kg), clinical DXR (1×20 mg/kg), or chemotherapy+[Low]DXR as described in FIG. S2.
Average frequency of each population (n≥6 per group) is shown.
Absolute number/femur±SD of each population (n≥6 per group) is shown.
At 10 days post-treatment, BM was analyzed by flow cytometry to determine frequency of blast cells. Average frequency±SD (n 6 per group). Note that this experiment used clinical dose (normal) or [Low]
Alternatively, a single injection on day 1 of 0.8 or 2.5 μg/g of DXR-loaded nanoparticles (NanoDXR) was given with and without chemotherapy. At 10 days post-treatment, BM was analyzed by flow cytometry to determine frequency of LSCs. Shown is average frequency±SD (n 6 per group).
Alternatively, a single injection on day 1 of 0.8 or 2.5 μg/g of DXR-loaded nanoparticles (NanoDXR) was given with and without chemotherapy. At 10 days post-treatment, BM was analyzed by flow cytometry to determine frequency of HSPCs. Shown is average frequency±SD (n 6 per group).
Whole bone marrow was isolated from uninduced HSC-SCL-Cre^+ Pten^fx/fx βcat^fx(Exon3)/+ (Pn:β-cat^Act) mice and combined with an equal portion of Cre negative bone marrow from a littermate and transplanted into irradiated (10 Grays) B6.SJL-Ptprc^a Pepc^b/BoyJ (Ptprc) recipients.
Chemotherapy for the animal model consisted of Nelarabine (Selleck) and Dexamethasone (BioVision) administered daily for 5 days consecutively. 43.4 mg/ml Nelarabine was administered intravenously via the tail vain according to the formula: Body Weight (g)×5=volume to inject (μl), which yielded 217 mg/kg. 2.5 mg/ml Dexamethasone was injected intraperitoneally according to the formula: Body Weight (g)×4=volume to inject (μl), yielding 10 mg/kg. […] [Low] NanoDXR treatment used doxorubicin nanoparticles (Tran et al. 2014) administered as a single IV injection once per week on day 1 relative to above treatments using 0.8 mg/kg. Maintenance [Low] NanoDXR consisted of once per week injections of 0.4 mg/kg. Groups combining Nelarabine with Doxorubicin used a single injection containing both drugs. All drugs were solubilized in 45% (2-Hydroxypropyl)-p-cyclodextrin (HBC) or 0.9% NaCl.
Cells were collected from bone marrow (femur and tibia), spleen, peripheral blood, and thymus. For cell surface phenotyping, a lineage cocktail (Lin) was used including CD3 (for HSPC but not LSC analysis), CD4, CD8, Mac-1, Gr, B220, IgM, and Ter119 (eBioscience, San Diego, CA). Monoclonal antibodies against CD3 (separate fluorophore for LSC analysis), Sca-1, c-Kit, CD45.1, and CD45.2 were also used where indicated. Cell sorting and analysis were performed using an inFlux (BD), MoFlo (Dako, Ft. Collins, CO) and/or CyAn ADP (Dako, Ft. Collins, CO). Data analysis was performed using FlowJo software (Ashland, OR).

pS^552-β-cat^+ LSCs = assay: Pilot clinical trial of low-dose DNR in relapsed/refractory adult AML; type: in vivo, human; details: low-dose DNR 6.75 mg/m^2 daily ×5; BM day 0 vs day 8
From the text: This was registered at clinicaltrials.gov (identifier NCT02914977). All patients provided informed consent according to institutional guidelines. At least two prior induction attempts were required for fit patients with primary refractory leukemia; unfit or relapsed patients were allowed entry with one prior therapy. There was no limit on number of prior therapies. […] Exclusion criteria included presence of acute promyelocytic leukemia, CNS leukemia or total lifetime anthracycline exposure exceeding the equivalent of 900 mg/m^2 of DNR. Treatment consisted of bone marrow aspiration for correlative studies followed by one cycle of low dose DNR (6.75 mg/m^2×5 consecutive days, days 1-5) and second bone marrow aspiration on day 8. Effects on LSC population were measured by flow cytometry. Adverse events (AEs) and laboratory values were monitored for safety. This study is compliant with all relevant ethical regulations regarding research involving human participants and was approved by the Human Subjects Committee at the University of Kansas.

COc1cccc2c1C(=O)c1c(O)c3c(c(O)c1C2=O)C[C@@](O)(C(C)=O)C[C@@H]3O[C@H]1C[C@H](N)[C@H](O)[C@H](C)O1 [DNR, Daunorubicin]
inhibition of pS552-β-catenin compared with DXR [1]: similarly inhibits pS^552-β-catenin
LSC, HSPC and blast cell frequency compared with low-dose doxorubicin [2]: performs similarly to low-dose doxorubicin
patients with substantial reductions in pS552-β-cat+ LSCs (pS^552-β-cat^+ LSCs): 5/10
patients with unchanged pS552-β-cat+ LSCs (pS^552-β-cat^+ LSCs): 3/8
